Source: PubChem BioAssay AID248 (DTP/NCI, 2004)
Values joined by “and” are separate entries in the source; they are usually repeats but may differ in a detail not shown here. Identical values can stand only once. Toxic doses and inconclusive results are not listed. No stated cut-off is given here; in the data, active means T/C of 150% or more; inactive means T/C below 125%. Peptide text beside a SMILES is read from it. * marks the point of attachment. Cbz = O=C(OCc1ccccc1)*; Bn = c1ccc(C*)cc1

Test system: L1210 leukemia ip in BDF1 mice, survival T/C
Test: NCI In Vivo Anticancer Drug Screen. Data for tumor model L1210 Leukemia (intraperitoneal) in B6D2F1 (BDF1) mice
Conditions: endpoint: mean survival time, higher = longer survival
Summary of the method: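 Read-out is survival time, reported as the treated-group measurement over the vehicle-control measurement.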

[1] = dose: 100.0 mg/kg/injection, schedule: Q04DX003 (ip), vehicle: Klucel (hydroxypropylcellulose) (HPC)
[2] = dose: 200.0 mg/kg/injection, schedule: Q04DX003 (ip), vehicle: Klucel (hydroxypropylcellulose) (HPC)
[3] = dose: 400.0 mg/kg/injection, schedule: Q04DX003 (ip), vehicle: Klucel (hydroxypropylcellulose) (HPC)
[4] = dose: 100.0 mg/kg/injection, schedule: Q01DX001 (ip), vehicle: Klucel (hydroxypropylcellulose) (HPC)
[5] = dose: 200.0 mg/kg/injection, schedule: Q01DX001 (ip), vehicle: Klucel (hydroxypropylcellulose) (HPC)
[6] = dose: 400.0 mg/kg/injection, schedule: Q01DX001 (ip), vehicle: Klucel (hydroxypropylcellulose) (HPC)
[7] = dose: 100.0 mg/kg/injection, schedule: Q01DX001 (ip), vehicle: carboxymethylcellulose (CMC)
[8] = dose: 200.0 mg/kg/injection, schedule: Q01DX001 (ip), vehicle: carboxymethylcellulose (CMC)
[9] = dose: 400.0 mg/kg/injection, schedule: Q01DX001 (ip), vehicle: carboxymethylcellulose (CMC)
[10] = dose: 100.0 mg/kg/injection, schedule: Q01DX009 (ip), vehicle: saline with Tween-80
[11] = dose: 100.0 mg/kg/injection, schedule: Q04DX003 (ip), vehicle: saline with Tween-80
[12] = dose: 200.0 mg/kg/injection, schedule: Q01DX009 (ip), vehicle: saline with Tween-80
[13] = dose: 200.0 mg/kg/injection, schedule: Q04DX003 (ip), vehicle: saline with Tween-80
[14] = dose: 100.0 mg/kg/injection, schedule: Q04DX003 (ip), vehicle: saline
[15] = dose: 200.0 mg/kg/injection, schedule: Q04DX003 (ip), vehicle: saline
[16] = dose: 400.0 mg/kg/injection, schedule: Q04DX003 (ip), vehicle: saline
[17] = dose: 100.0 mg/kg/injection, schedule: Q01DX001 (ip), vehicle: saline
[18] = dose: 200.0 mg/kg/injection, schedule: Q01DX001 (ip), vehicle: saline
[19] = dose: 100.0 mg/kg/injection, schedule: Q01DX Z (ip), vehicle: saline
[20] = dose: 25.0 mg/kg/injection, schedule: Q04DX002 (ip), vehicle: saline
[21] = dose: 50.0 mg/kg/injection, schedule: Q04DX002 (ip), vehicle: saline
[22] = dose: 100.0 mg/kg/injection, schedule: Q04DX002 (ip), vehicle: saline

Measured: T/C

C[N+]1(C)CC2CCCCC1C2O (centres undefined)
inactive: dose: 75.0 mg/kg/injection, schedule: Q01DX001 (ip), vehicle: saline 108 % of control | dose: 150.0 mg/kg/injection, schedule: Q01DX001 (ip), vehicle: saline 104 % of control

CC1CCC(C(C)C)C(NCc2cc(Br)cc(Br)c2O)C1 (centres undefined)
inactive: [1] 98 % of control | [2] 92 % of control | [3] 98 % of control

O=C1OCC2CC3c4ccccc4C12c1ccccc13 (centres undefined)
inactive: [4] 100 % of control | [1] 98 % of control | [5] 92 % of control | [2] 93 % of control | [6] 105 % of control | [3] 97 % of control

O=C(OC(C1COCO1)C(O)C1COCO1)c1ccccc1 (centres undefined)
inactive: [4] 96 % of control | [5] 105 % of control | [6] 107 % of control

COc1ccc(-n2c(O)c(N=Nc3ccc(Br)cc3)c(=O)n(-c3ccccc3)c2=S)cc1
inactive: dose: 50.0 mg/kg/injection, schedule: Q01DX001 (ip), vehicle: Klucel (hydroxypropylcellulose) (HPC) 102 % of control | [4] 104 % of control | [5] 100 % of control

N#Cc1cc2ccccc2nc1N
inactive: [7] 98 % of control | [8] 93 % of control | [9] 98 % of control

C[C@]12CC[C@@H](O)C[C@H]1CC[C@@H]1[C@@H]2CC[C@]2(C)C(=O)CC[C@@H]12
inactive: dose: 100.0 mg/kg/injection, schedule: Q01DX001 (sc), vehicle: steriod suspending solution 101 % of control | dose: 100.0 mg/kg/injection, schedule: Q04DX002 (ip), vehicle: saline with Tween-80 100 % of control | dose: 200.0 mg/kg/injection, schedule: Q01DX001 (sc), vehicle: steriod suspending solution 95 % of control | dose: 200.0 mg/kg/injection, schedule: Q04DX002 (ip), vehicle: saline with Tween-80 96 % of control | dose: 400.0 mg/kg/injection, schedule: Q01DX001 (sc), vehicle: steriod suspending solution 95 % of control | dose: 400.0 mg/kg/injection, schedule: Q04DX002 (ip), vehicle: saline with Tween-80 100 % of control

CCCCCCCCCCNCCS
inactive: dose: 4.0 mg/kg/injection, schedule: Q01DX015 (ip), vehicle: carboxymethylcellulose (CMC) 105 % of control | dose: 5.0 mg/kg/injection, schedule: Q01DX001 (ip), vehicle: carboxymethylcellulose (CMC) 109 % of control | dose: 5.0 mg/kg/injection, schedule: Q04DX003 (ip), vehicle: saline sonified 101 % of control | dose: 8.0 mg/kg/injection, schedule: Q01DX015 (ip), vehicle: carboxymethylcellulose (CMC) 103 % of control | dose: 10.0 mg/kg/injection, schedule: Q01DX001 (ip), vehicle: carboxymethylcellulose (CMC) 103 % of control | dose: 10.0 mg/kg/injection, schedule: Q04DX003 (ip), vehicle: saline sonified 101 % of control | dose: 16.0 mg/kg/injection, schedule: Q01DX015 (ip), vehicle: carboxymethylcellulose (CMC) 101 % of control | dose: 20.0 mg/kg/injection, schedule: Q04DX003 (ip), vehicle: saline sonified 101 % of control | dose: 32.0 mg/kg/injection, schedule: Q01DX015 (ip), vehicle: carboxymethylcellulose (CMC) 103 % of control

CCCCCCCCCCC(CCCCCCCCCC)CC(C)(C)C
inactive: dose: 50.0 mg/kg/injection, schedule: Q01DX001 (ip), vehicle: saline with Tween-80 103 % of control | dose: 100.0 mg/kg/injection, schedule: Q01DX001 (ip), vehicle: saline with Tween-80 96 % of control | dose: 200.0 mg/kg/injection, schedule: Q01DX001 (ip), vehicle: saline with Tween-80 103 % of control

O=c1c(O)c(-c2ccccc2)oc2ccccc12
inactive: [7] 90 % of control | [8] 97 % of control | [9] 97 % of control

O=C(O/N=C(\C(=O)c1ccccc1)c1ccccc1)c1ccc(Br)cc1
inactive: dose: 50.0 mg/kg/injection, schedule: Q01DX009 (ip), vehicle: saline with Tween-80 97 % of control | [10] 92 % of control | [11] 94 % of control | [12] 89 % of control | [13] 87 % of control

O=C(NCCO)NCCO
inactive: [14] 95 % of control | [15] 98 % of control | [16] 123 % of control

C=CS(=O)(=O)CCCC
inactive: [10] 97 % of control | [12] 101 % of control

O=C1CC(=O)NC(=S)N1
inactive: [11] 101 % of control | [13] 93 % of control | dose: 400.0 mg/kg/injection, schedule: Q04DX003 (ip), vehicle: saline with Tween-80 93 % of control

N=C1N=C(N)CS1
inactive: [17] 95 % of control | [18] 104 % of control | dose: 400.0 mg/kg/injection, schedule: Q01DX001 (ip), vehicle: saline 101 % of control

O=C(O)CC1(CC(=O)O)CCCCC1
inactive: [10] 90 % of control | [12] 95 % of control | dose: 400.0 mg/kg/injection, schedule: Q01DX009 (ip), vehicle: saline with Tween-80 92 % of control

C1=C(C2=CCCCC2)CCCC1
inactive: dose: 100.0 mg/kg/injection, schedule: Q01DX009 (ip), vehicle: acetone 108 % of control | [14] 112 % of control | dose: 200.0 mg/kg/injection, schedule: Q01DX009 (ip), vehicle: acetone 100 % of control | [15] 104 % of control | dose: 400.0 mg/kg/injection, schedule: Q01DX009 (ip), vehicle: acetone 108 % of control | [16] 96 % of control

CC(=O)c1c(C)cc(C)nc1C
inactive: [17] 96 % of control | [18] 102 % of control

O=C(O)C(Oc1ccc(Cl)cc1Cl)C(=O)O
inactive: dose: 100.0 mg/kg/injection, schedule: Q04DX002 (ip), vehicle: other 93 % of control | dose: 200.0 mg/kg/injection, schedule: Q04DX002 (ip), vehicle: other 97 % of control | dose: 400.0 mg/kg/injection, schedule: Q04DX002 (ip), vehicle: other 95 % of control

COC(=O)C(NC(=O)C(CSCc1ccccc1)NC(=O)OCc1ccccc1)C(C)C (centres undefined) (Cbz-Cys(Bn)-Val-OMe; configuration not given here)
inactive: [1] 95 % of control | [2] 97 % of control | [3] 95 % of control

O=C1c2cc([N+](=O)[O-])ccc2-c2ccc([N+](=O)[O-])cc21
inactive: dose: 50.0 mg/kg/injection, schedule: Q01DX009 (ip), vehicle: Klucel (hydroxypropylcellulose) (HPC) 95 % of control and 90 % of control | [7] 89 % of control | dose: 100.0 mg/kg/injection, schedule: Q01DX009 (ip), vehicle: Klucel (hydroxypropylcellulose) (HPC) 109 % of control | dose: 100.0 mg/kg/injection, schedule: Q04DX002 (ip), vehicle: Klucel (hydroxypropylcellulose) (HPC) 101 % of control | [8] 87 % of control | dose: 200.0 mg/kg/injection, schedule: Q01DX009 (ip), vehicle: Klucel (hydroxypropylcellulose) (HPC) 98 % of control and 102 % of control | dose: 200.0 mg/kg/injection, schedule: Q04DX002 (ip), vehicle: Klucel (hydroxypropylcellulose) (HPC) 113 % of control | [9] 97 % of control | dose: 400.0 mg/kg/injection, schedule: Q04DX002 (ip), vehicle: Klucel (hydroxypropylcellulose) (HPC) 89 % of control

O=NN(CC(=O)O)Cc1ccc(Cl)cc1
inactive: [19] 102 % of control | dose: 200.0 mg/kg/injection, schedule: Q01DX Z (ip), vehicle: saline 102 % of control

O=C1C=C(O)c2ccc(=O)[nH]c2C1=O
inactive: [17] 95 % of control | [18] 98 % of control

C=CC(=O)O (tested in a mixture with another compound)
inactive: [19] 91 % of control

OCC1OC(n2cnc3c2ncn2nnnc32)C(O)C1O (centres undefined)
inactive: dose: 100.0 mg/kg/injection, schedule: Q01DX005 (ip), vehicle: saline 100 % of control | dose: 200.0 mg/kg/injection, schedule: Q01DX005 (ip), vehicle: saline 110 % of control

Cc1cccc(CNC(=O)NCCCl)c1C
inactive: [4] 100 % of control | [5] 97 % of control | [6] 95 % of control

NCC(=O)NC(CSSCC(N)C(=O)O)C(=O)O (centres undefined)
inactive: [20] 103 % of control | [21] 103 % of control | [22] 100 % of control

COc1ccc(CC(N)C(=O)N2CC(n3cnc4c(N(C)C)ncnc43)CC2CO)cc1 (centres undefined)
inactive: [20] 98 % of control | [21] 119 % of control | [22] 105 % of control
